Like-named read-outs stand apart in the source and are kept apart here.
What was measured:
LoVo cells = experiment: MTT based cell viability assay on LoVo cells; conditions: Homo sapiens, LoVo, 72 h, 3 d, read-out: IC50, growth inhibition of LoVo cells
Summary of the method: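 Inhibition of LoVo proliferation was derived as IC50 from a sigmoidal dose-response fit of cell survival. Readout was MTT (0.5 mg/mL, 4 h) with absorbance at 552/630/690 nm, after 3-day treatment at 37 °C. Eight-point series from 10 μM to 0.01 μM, DMSO control, 1% DMSO final.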

NCI-H1299 cells = experiment: MTT based cell viability assay on NCI-H1299 cells; conditions: Homo sapiens, read-out: IC50, growth inhibition of NCI-H1299 cells
Summary of the method: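 Viability read-out was MTT reduction (0.5 mg/mL, 4 h, absorbance 552/630/690 nm) after 3-day compound exposure at 37 °C of NCI-H1299 cells seeded at 1000 per well. Dilutions spanned 10 μM–0.01 μM in DMSO, final DMSO 1‰. Survival-versus-concentration curves were fitted sigmoidally to give IC50.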

Wee1 (h) = Wee1 (h) (Homo sapiens, UniProt P30291); experiment: Wee1 kinase (h) detection method, [γ-33P]-ATP filter assay; format: biochemical
Sequence of Wee1 (h) (P30291 whole entry): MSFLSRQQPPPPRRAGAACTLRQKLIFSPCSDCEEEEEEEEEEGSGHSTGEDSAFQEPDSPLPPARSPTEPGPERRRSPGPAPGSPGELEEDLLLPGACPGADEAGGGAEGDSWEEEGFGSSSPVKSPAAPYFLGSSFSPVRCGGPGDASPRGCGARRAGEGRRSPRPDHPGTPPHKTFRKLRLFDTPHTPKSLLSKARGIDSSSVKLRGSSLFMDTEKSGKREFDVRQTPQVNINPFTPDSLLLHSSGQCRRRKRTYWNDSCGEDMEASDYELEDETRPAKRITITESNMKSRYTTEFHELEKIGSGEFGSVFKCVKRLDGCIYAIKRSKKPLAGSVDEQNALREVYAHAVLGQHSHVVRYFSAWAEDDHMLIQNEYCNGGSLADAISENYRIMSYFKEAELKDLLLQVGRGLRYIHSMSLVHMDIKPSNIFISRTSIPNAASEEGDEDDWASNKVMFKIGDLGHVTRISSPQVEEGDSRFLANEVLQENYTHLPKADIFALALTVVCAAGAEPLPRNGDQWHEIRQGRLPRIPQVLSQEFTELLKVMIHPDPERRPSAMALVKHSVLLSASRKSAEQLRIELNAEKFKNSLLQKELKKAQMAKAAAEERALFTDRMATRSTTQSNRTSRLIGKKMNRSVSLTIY

IC50 (LoVo cells) [nM] | IC50 (NCI-H1299 cells; NCI-H1299, NCI-H1299 cells) [nM] | Inh. (%) of Wee1 kinase enzyme activity (Wee1 (h); C 0.01 μm compound) [%] | Inh. (%) of Wee1 kinase enzyme activity (Wee1 (h); C 0.1 μm compound) [%] | Inh. (%) of Wee1 kinase enzyme activity (Wee1 (h); C 1 μm compound) [%] | IC50 (NCI-H1299 cells; NCI-H1299 cells) [nM] | SMILES
27.3 | 62.8 | 31 | 85 | 98 |  | Cc1cc(Nc2ncc3c(n2)N2CCN=C2N(c2c(Cl)cccc2Br)C3=O)cc(F)c1N1CCC(N(C)C)CC1 [Example 160, 6-(2-Bromo-6-chlorophenyl)-2-((4-(4-(dimethylamino)piperidin-1-yl)-3-fluoro-5-methylphenyl)amino)-8,9-dihydroimidazo[1,2-a]pyrimido[5,4-e]pyrimidin-5(6H)-one]
93.3 |  | 27 | 72 | 97 | 217 | CN1CCN(c2ccc(Nc3ncc4c(n3)N3CCN=C3N(c3c(Cl)cccc3Br)C4=O)cc2Cl)CC1 [Example 161, 6-(2-Bromo-6-chlorophenyl)-2-((3-chloro-4-(4-methylpiperazin-1-yl)phenyl)amino)-8,9-dihydroimidazo[1,2-a]pyrimido[5,4-e]pyrimidin-5(6H)-one]
65.2 |  | 22 | 86 | 98 | 207 | CN1CCN(c2ccc(Nc3ncc4c(n3)N3CCN=C3N(c3c(Cl)cccc3Br)C4=O)cc2Br)CC1 [Example 162, 6-(2-Bromo-6-chlorophenyl)-2-((3-bromo-4-(4-methylpiperazin-1-yl)phenyl)amino)-8,9-dihydroimidazo[1,2-a]pyrimido[5,4-e]pyrimidin-5(6H)-one]
62.5 |  | 25 | 87 | 99 | 97.8 | Cc1cc(Nc2ncc3c(n2)N2CCN=C2N(c2c(Cl)cccc2Br)C3=O)ccc1N1CCN(C)CC1 [Example 163, 6-(2-Bromo-6-chlorophenyl)-2-((3-methyl-4-(4-methylpiperazin-1-yl)phenyl)amino)-8,9-dihydroimidazo[1,2-a]pyrimido[5,4-e]pyrimidin-5(6H)-one]
101 | 159 | 17 | 68 | 97 |  | CN1CCN(c2c(Cl)cc(Nc3ncc4c(n3)N3CCN=C3N(c3c(Cl)cccc3Br)C4=O)cc2Cl)CC1 [Example 164, 6-(2-Bromo-6-chlorophenyl)-2-((3,5-dichloro-4-(4-methylpiperazin-1-yl)phenyl)amino)-8,9-dihydroimidazo[1,2-a]pyrimido[5,4-e]pyrimidin-5(6H)-one]
24.1 | 97.3 |  |  | 92 |  | Cc1cc(Nc2ncc3c(n2)N2CCN=C2N(c2c(Cl)cccc2Br)C3=O)cc(F)c1N1CCN(C)CC1 [Example 165, 6-(2-Bromo-6-chlorophenyl)-2-((3-fluoro-5-methyl-4-(4-methylpiperazin-1-yl)phenyl)amino)-8,9-dihydroimidazo[1,2-a]pyrimido[5,4-e]pyrimidin-5(6H)-one]
55.5 | 99.3 | 28 | 86 | 98 |  | Cc1cc(Nc2ncc3c(n2)N2CCN=C2N(c2c(Cl)cccc2Br)C3=O)cc(Cl)c1N1CCN(C)CC1 [Example 166, 6-(2-Bromo-6-chlorophenyl)-2-((3-chloro-5-methyl-4-(4-methylpiperazin-1-yl)phenyl)amino)-8,9-dihydroimidazo[1,2-a]pyrimido[5,4-e]pyrimidin-5(6H)-one]
62.7 | 107 | 21 | 82 | 98 |  | Cc1cc(Nc2ncc3c(n2)N2CCN=C2N(c2c(Cl)cccc2Br)C3=O)cc(Br)c1N1CCN(C)CC1 [Example 167, 6-(2-Bromo-6-chlorophenyl)-2-((3-bromo-5-methyl-4-(4-methylpiperazin-1-yl)phenyl)amino)-8,9-dihydroimidazo[1,2-a]pyrimido[5,4-e]pyrimidin-5(6H)-one]
296 |  |  |  | 89 | 599 | Cc1cccc(F)c1N1C(=O)c2cnc(Nc3ccc(N4CCN(C)CC4)c(Cl)c3)nc2N2CCN=C21 [Example 168, 6-(2-Fluoro-6-methylphenyl)-2-((3-chloro-4-(4-methylpiperazin-1-yl)phenyl)amino)-8,9-dihydroimidazo[1,2-a]pyrimido[5,4-e]pyrimidin-5(6H)-one]
165 | 274 | 16 | 73 | 93 |  | Cc1cc(Nc2ncc3c(n2)N2CCN=C2N(c2c(C)cccc2F)C3=O)cc(C)c1N1CCN(C)CC1 [Example 169, 6-(2-Fluoro-6-methylphenyl)-2-((3,5-dimethyl-4-(4-methylpiperazin-1-yl)phenyl)amino)-8,9-dihydroimidazo[1,2-a]pyrimido[5,4-e]pyrimidin-5(6H)-one]
228 | 442 | 16 | 59 | 95 |  | Cc1cccc(Cl)c1N1C(=O)c2cnc(Nc3ccc(N4CCN(C)CC4)c(Cl)c3)nc2N2CCN=C21 [Example 171, 6-(2-Chloro-6-methylphenyl)-2-((3-chloro-4-(4-methylpiperazin-1-yl)phenyl)amino)-8,9-dihydroimidazo[1,2-a]pyrimido[5,4-e]pyrimidin-5(6H)-one]
117 | 362 | 12 | 60 | 91 |  | Cc1cccc(Cl)c1N1C(=O)c2cnc(Nc3cc(Cl)c(N4CCN(C)CC4)c(Cl)c3)nc2N2CCN=C21 [Example 172, 6-(2-Chloro-6-methylphenyl)-2-((3,5-dichloro-4-(4-methylpiperazin-1-yl)phenyl)amino)-8,9-dihydroimidazo[1,2-a]pyrimido[5,4-e]pyrimidin-5(6H)-one]
99.2 | 226 | 26 | 71 | 94 |  | Cc1cc(Nc2ncc3c(n2)N2CCN=C2N(c2c(C)cccc2Cl)C3=O)cc(Cl)c1N1CCN(C)CC1 [Example 173, 6-(2-Chloro-6-methylphenyl)-2-((3-chloro-5-methyl-4-(4-methylpiperazin-1-yl)phenyl)amino)-8,9-dihydroimidazo[1,2-a]pyrimido[5,4-e]pyrimidin-5(6H)-one]
136 | 152 | 30 | 83 | 94 |  | Cc1cc(Nc2ncc3c(n2)N2CCN=C2N(c2c(C)cccc2Cl)C3=O)cc(C)c1N1CCN(C)CC1 [Example 174, 6-(2-Chloro-6-methylphenyl)-2-((3,5-dimethyl-4-(4-methylpiperazin-1-yl)phenyl)amino)-8,9-dihydroimidazo[1,2-a]pyrimido[5,4-e]pyrimidin-5(6H)-one]
192 |  |  |  | 95 | 269 | O=C1c2cnc(Nc3ccc(N4CCNCC4)cc3)nc2N2CCN=C2N1c1c(Cl)cccc1Cl [Example 175, 6-(2,6-Dichlorophenyl)-2-((4-(piperazin-1-yl)phenyl)amino)-8,9-dihydroimidazo[1,2-a]pyrimido[5,4-e]pyrimidin-5(6H)-one]
73.6 |  |  |  | 96 | 126 | O=C1c2cnc(Nc3ccc(N4CCNCC4)c(Cl)c3)nc2N2CCN=C2N1c1c(Cl)cccc1Cl [Example 176, 6-(2,6-Dichlorophenyl)-2-((3-chloro-4-(piperazin-1-yl)phenyl)amino)-8,9-dihydroimidazo[1,2-a]pyrimido[5,4-e]pyrimidin-5(6H)-one]
281 |  |  |  | 94 | 360 | COc1cc(Nc2ncc3c(n2)N2CCN=C2N(c2c(Cl)cccc2Cl)C3=O)ccc1N1CCNCC1 [Example 178, 6-(2,6-Dichlorophenyl)-2-((3-methoxy-4-(piperazin-1-yl)phenyl)amino)-8,9-dihydroimidazo[1,2-a]pyrimido[5,4-e]pyrimidin-5(6H)-one]
2860 |  |  |  | 95 | 70600 | O=C1c2cnc(Nc3ccc(N4CCNCC4)c(CO)c3)nc2N2CCN=C2N1c1c(F)cccc1Cl [Example 179, 6-(2-Chloro-6-fluorophenyl)-2-((3-(hydroxymethyl)-4-(piperazin-1-yl)phenyl)amino)-8,9-dihydroimidazo[1,2-a]pyrimido[5,4-e]pyrimidin-5(6H)-one]
2380 |  |  |  | 96 | 2050 | O=C1c2cnc(Nc3ccc(N4CCNCC4)c(CO)c3)nc2N2CCN=C2N1c1c(Cl)cccc1Cl [Example 180, 6-(2,6-Dichlorophenyl)-2-((3-(hydroxymethyl)-4-(piperazin-1-yl)phenyl)amino)-8,9-dihydroimidazo[1,2-a]pyrimido[5,4-e]pyrimidin-5(6H)-one]

— patent US11345711B2, “8,9-dihydroimidazo[1,2-a]pyrimido[5,4-e]pyrimidin-5(6H)-ones” (IMPACT THERAPEUTICS (SHANGHAI), INC, priority 2016, dated 2022)
